According to patent US20240150839A1, “METHODS FOR PREDICTING RESPONSIVENESS OF PROSTATE CANCER PATIENTS TO PARP INHIBITORS” (Memorial Sloan Kettering Cancer Center, priority 2019, published 2024):

Tests used:
Type in all cases: cell-based, human
BRCA2-null LNCaP cells [1] = test: Cell growth (BrdU, crystal violet, MTT) of BRCA2 CRISPR-edited LNCaP cells with enzalutamide; conditions: BRCA2-null LNCaP vs scr control; complete medium, 7 days (FIGS. 1E, 7D, 7F)
Procedure: Cells infected with scrambled (scr) gRNA were used as a negative control. Cas9 and RHoGDI served as loading controls. […] Nuclei were stained with DAPI (blue). […] P-values were determined by Student's t-test. ***P<0.001. […] Equivalent volume of DMSO was used as placebo treatment. Cell growth was measured by BRDU incorporation assay (see Example 1) (±SD); P-values were determined by Student's t-test.***P<0.001. […] Parental LAPC4 cells were transiently transfected with BRCA2-specific SMARTpool siRNA for 96 hours. Total RNA was isolated, and BRCA2 mRNA was analyzed by qPCR. Scrambled SMARTpool siRNA-transfected cells were used as control (top). […] Cell growth was measured by MTT assay; SD, p-values were determined by Student's t-test. […]
Cells infected with scrambled (scr) gRNA were used as control. […] Genotypes are detected by PCR amplification followed by being treated with T7 endonuclease. […] Cell growth was measured by MTT assay (see Example 1); SD, P-values determined by Student's t-test. *P<0.05, **P<0.01, ***P<0.001. […] Cell growth was measured by crystal violet staining assay (see Example 1) (±SD); P-values determined by Student's t-test. […] Cell growth was measured by MTT assay (see Example 1) (±SD); P-values determined by Student's t-test. […] Total RNA was isolated, and BRCA2 mRNA was analyzed by qPCR. […] Cell growth was measured by MTT assay; SD, P-values determined by Student's t-test. […]

[2] = tested on: BRCA2 SMARTpool siRNA-transfected LNCaP cells; test: MTT cell growth of BRCA2 siRNA-transfected LNCaP cells with enzalutamide; conditions: BRCA2 siRNA LNCaP vs scrambled siRNA; ENZ 20 μM, 96 hours post transfection (FIG. 7G)
Procedure: Cells infected with scrambled (scr) gRNA were used as control. Equal amount of proteins was loaded in WedgeWell 6% gel and western blot was performed. ˜400 kDa BRCA2 band is indicated by arrow. GAPDH served as loading controls for western blot and qPCR. […] Genotypes are detected by PCR amplification followed by being treated with T7 endonuclease. Wt and mutant BRCA2 are indicated by red and green arrows, respectively. […] Equivalent volume of DMSO was used as placebo treatment. Cell growth was measured by MTT assay (see Example 1); SD, P-values determined by Student's t-test. *P<0.05, **P<0.01, ***P<0.001. […] Cell growth was measured by crystal violet staining assay (see Example 1) (±SD); P-values determined by Student's t-test. […] Cell growth was measured by MTT assay (see Example 1) (±SD); P-values determined by Student's t-test. […] Total RNA was isolated, and BRCA2 mRNA was analyzed by qPCR. […] Cell growth was measured by MTT assay; SD, P-values determined by Student's t-test. […]
(§1) Cell Proliferation Assay by MTT, BrdU and Crystal Violet. […] MTT crystals were dissolved in isopropanol and absorbance was measured in a BioTek plate reader at […] and represented graphically.

[3] = tested on: BRCA2 SMARTpool siRNA-transfected LAPC4 cells; test: MTT cell growth of BRCA2 siRNA-transfected LAPC4 cells with enzalutamide; conditions: BRCA2 siRNA LAPC4 vs scrambled siRNA; ENZ 20 μM, 72 hours after transfection (FIG. 1F)
Procedure: Cells infected with scrambled (scr) gRNA were used as a negative control. Cas9 and RHoGDI served as loading controls. […] Nuclei were stained with DAPI (blue). […] P-values were determined by Student's t-test. ***P<0.001. […] Equivalent volume of DMSO was used as placebo treatment. Cell growth was measured by BRDU incorporation assay (see Example 1) (±SD); P-values were determined by Student's t-test.***P<0.001. […] Parental LAPC4 cells were transiently transfected with BRCA2-specific SMARTpool siRNA for 96 hours. Total RNA was isolated, and BRCA2 mRNA was analyzed by qPCR. Scrambled SMARTpool siRNA-transfected cells were used as control (top). BRCA2- or scrambled SMARTpool siRNA-transfected LAPC4 cells were cultured in charcoal-stripped medium (CSS) or complete medium supplemented with enzalutamide (ENZ; 20 μM) for 72 hours after transfection (bottom). Equivalent volume of DMSO was used as placebo treatment. Cell growth was measured by MTT assay; SD, p-values were determined by Student's t-test. […] Control and CRISPR-edited LNCaP cells (10^3 cells/well) were mixed with Matrigel, and 3D cell cultures (organoids) were grown for 7 days in androgen-depleted, growth factor-enriched media. […]
as §1

LNCaP-BRCA2-RB1 cells = test: MTT cell growth with PARP inhibitors; conditions: LNCaP-BRCA2-RB1 vs BRCA2-null LNCaP; olaparib 3 μM, talazoparib 0.005 μM (FIG. 2E)
Procedure: (§2) Scr-CRISPR and BRCA2-CRISPR2 cells were also transfected with non-targeting shRNA (scr-Sh) for control of shRNA. RHoGDI served as the loading control. […] Equivalent volume of DMSO was used as placebo treatment. Cell growth was measured by MTT assay; SD, p-values were determined by Student's t-test. […] FIG. 2C (2nd and 3rd rows) show the immunofluorescence (400× magnification) of F-actin filament stained with phalloidin in indicated CRISPR/shRNA-infected LNCaP cells. Nuclei were stained with DAPI (blue). […] 5×10^3 indicated cells were plated on the top of Boyden chamber (see Example 1) in serum-free media; 10% serum in the bottom chamber was used as chemo-attractant. After 48 hours, cells in the lower side of the chamber were fixed, stained, and photographed (100× magnification). […] Nuclei were stained with DAPI (blue). […] The graphs show cell growth measured by MTT assay (±SD); P-values determined by Student's t-test. […] RNA sequencing was analyzed by Partek.
(§3) To generate BRCA2-RB1 knockout-knockdown LNCaP cells, parental LNCaP cells were first infected with lentivirus containing BRCA2 gRNA or scr gRNA. Pooled population of the stable cells were established by puromycin selection and analyzed by western blot and qPCR. BRCA2-knockout or scr LNCaP cells were infected with lentivirus containing RB1 shRNA followed by hygromycin selection. BRCA2-knockout or scr (gRNA) LNCaP cells also infected with lentiviral non-targeting shRNA (scr-shRNA) were used as control. Cells within 4-10 passages after stable selection were used for the following experiments.
(§4) Cell Proliferation Assay by MTT, BrdU and Crystal Violet. For MTT assay, cells were plated at 2.5×10^3 per well in 96-well plates in complete media (10% FBS) or media supplemented with 10% charcoal-stripped serum. Cells were either treated with DMSO or with indicated inhibitors. After indicated times, cells were incubated in 0.5 mg/mL MTT (Invitrogen) for 1 hour at 37° C. MTT crystals were dissolved in isopropanol and absorbance was measured in a BioTek plate reader at […] and represented graphically.

[4] = tested on: RB1 knockdown LNCaP cells; test: MTT cell growth with PARP inhibitors; conditions: RB1 knockdown vs control LNCaP cells; olaparib 3 μM, talazoparib 0.005 μM (FIG. 2E)
Procedure: as §2, §3, §4

BRCA2-null RWPE1 cells = test: MTT cell growth with olaparib; conditions: BRCA2-null vs control RWPE1; 3 μM and 10 μM olaparib, 7 days (FIG. 3G)
Procedure: Scr-CRISPR and BRCA2-CRISPR2 cells were also transfected with non-targeting shRNA (scr-Sh) for control of shRNA. GAPDH served as the loading control. […] Nuclei were stained with DAPI (blue). […] Control cells were transfected with empty vector. […] GAPDH served as the loading control. […] LNCaP cells were used as control. GAPDH served as the loading control. […] Nuclei were stained with DAPI (blue). […] Equivalent volume of DMSO was used as placebo treatment. Cell growth was measured by MTT assay; SD, P-values determined by Student's t-test. […] LNCaP-BRCA2-RB1 or control cells were incubated in charcoal-stripped medium (CSS) for 24 hours followed by treatment with 1 nM R1881 for another 48 hours (in CSS). […] After 24 hours, cells in the lower side of the chamber were fixed, stained, photographed in 100× magnification (top panel), and counted and represented in the form of the bar graph (bottom panel). P-values were determined by Student's t-test.
(§5) To generate BRCA2 knockout RWPE1 cells, BRCA2 gRNA2 was cloned into LentiCRISPRv2-GFP backbone which constitutively expresses Cas9 and GFP. Lentiviral infected cells were selected by FACS sorting for GFP positive cells (twice) and analyzed by western blot. […] Loss of BRCA2 in the pooled populations of LNCaP cells was analyzed by western blot using BRCA2-specific antibodies and this pooled population of cells was used for the following experiments. […]

MSK-PCa1 organoid = test: MTT growth of mCRPC organoids with PARPi; conditions: compared to benign organoid; 3 days (FIG. 6E)
From the text: (§6) Near-diploid benign prostate organoid is used as a control. […] GAPDH served as the loading control. […] The graphs show cell growth measured by MTT assay (±SD); P-trends determined by 2-way ANOVA.
(§7) Cell Culture. Human prostate cancer cells LNCaP, 22RV1, DU145, PC3, and VCaP were obtained from ATCC (Manassas, VA). LNCaP-C42 cells were obtained from VitroMed (Burlington, NC). The LNCaP-Abl cell line, E006AA-T cells, PC3M LAPC4 cell line were obtained. These cells were maintained in 10% FBS (LNCaP, LNCaP-C42, LAPC4, VCaP, 22RV1, DU145, PC3, PC3M, and E006AA) or 10% charcoal-stripped serum (LNCaP-Abl) supplemented with 2 mM of L-glutamine and 1×antibiotic/antimycotic (Gemini Bio-Products, Sacramento, CA) at 37° C. in 5% CO2. Human prostate epithelial cell RWPE1 was obtained from ATCC and cultured in keratinocyte serum-free medium (Thermo Fisher Scientific, Waltham, MA) at 37° C. in 5% CO2. Cells were authenticated by human short tandem repeat profiling at the MSK Integrated Genomics Operation Core. Patient-derived human prostate cancer organoids were cultured as described. Gao et al., Cell 159:176-87 (2014).
as §4

MSK-PCa3 organoid = test: MTT growth of mCRPC organoids with PARPi; conditions: compared to benign organoid; 3 days (FIG. 6E)
From the text: as §6, §7, §4

BRCA2-null LNCaP cells [5] = test: MTT cell growth of BRCA2 CRISPR-edited LNCaP cells with PARP inhibitors or cisplatin; conditions: BRCA2 knockout LNCaP vs control gRNA (scr) cells; complete medium, 6 days (FIG. 7C)
Procedure: Cells infected with scrambled (scr) gRNA were used as control. Equal amount of proteins was loaded in WedgeWell 6% gel and western blot was performed. ˜400 kDa BRCA2 band is indicated by arrow. GAPDH served as loading controls for western blot and qPCR. […] Genotypes are detected by PCR amplification followed by being treated with T7 endonuclease. Wt and mutant BRCA2 are indicated by red and green arrows, respectively. […] Equivalent volume of DMSO was used as placebo treatment. Cell growth was measured by MTT assay (see Example 1); SD, P-values determined by Student's t-test. *P<0.05, **P<0.01, ***P<0.001. FIGS. 7D-7E show the growth curve (FIG. 7D) and a bar graph (FIG. 7E) representing the cell growth of LNCaP BRCA2 CRISPR-edited and non-targeting control gRNA (scr) infected cells in complete medium supplemented with enzalutamide (ENZ; indicated concentration) for 7 days or charcoal-stripped medium (CSS) for 5 days, respectively. Equivalent volume of DMSO was used as placebo treatment. Cell growth was measured by crystal violet staining assay (see Example 1) (±SD); P-values determined by Student's t-test. […] Equivalent volume of DMSO was used as placebo treatment. Cell growth was measured by MTT assay (see Example 1) (±SD); P-values determined by Student's t-test. […] Total RNA was isolated, and BRCA2 mRNA was analyzed by qPCR. […] Cell growth was measured by MTT assay; SD, P-values determined by Student's t-test.
as §5, §1

SMILES: CNC(=O)c1ccc(N2C(=S)N(c3ccc(C#N)c(C(F)(F)F)c3)C(=O)C2(C)C)cc1F [enzalutamide]
- resistance to enzalutamide (cell growth) (BRCA2-null LNCaP cells [1]): relative resistance
- growth in complete media supplemented with enzalutamide [2]: resistance to androgen depletion
- growth in complete media supplemented with enzalutamide [3]: resistance to androgen depletion

SMILES: O=C(c1cc(Cc2n[nH]c(=O)c3ccccc23)ccc1F)N1CCN(C(=O)C2CC2)CC1 [olaparib]
- cell growth inhibition (MTT) (LNCaP-BRCA2-RB1 cells): more cell growth inhibition
- inhibitory effect on cell growth (MTT) [4]: could not be detected
- sensitivity (cell growth, MTT) (BRCA2-null RWPE1 cells): enhanced sensitivity
- organoid growth (MTT) (MSK-PCa1 organoid): growth reduction
- organoid growth (MTT) (MSK-PCa3 organoid): growth reduction

SMILES: CNCc1ccc(-c2[nH]c3cc(F)cc4c3c2CCNC4=O)cc1 [rucaparib]
- sensitivity (cell growth, MTT) (BRCA2-null LNCaP cells [5]): more sensitivity
